From EP3414229B1, “QUINOLINONE LYSYL OXIDASE-LIKE 2 INHIBITORS AND USES THEREOF” (Pharmakea, Inc., priority 2016, dated 2017) come the findings set out here.

One assay addresses T1, human LOXL2 (Homo sapiens, UniProt Q9Y4K0).
T1 construct: expressed in transfected cells; 10-20X concentrated conditioned media used as the enzyme source
T1 sequence (Q9Y4K0 26-774): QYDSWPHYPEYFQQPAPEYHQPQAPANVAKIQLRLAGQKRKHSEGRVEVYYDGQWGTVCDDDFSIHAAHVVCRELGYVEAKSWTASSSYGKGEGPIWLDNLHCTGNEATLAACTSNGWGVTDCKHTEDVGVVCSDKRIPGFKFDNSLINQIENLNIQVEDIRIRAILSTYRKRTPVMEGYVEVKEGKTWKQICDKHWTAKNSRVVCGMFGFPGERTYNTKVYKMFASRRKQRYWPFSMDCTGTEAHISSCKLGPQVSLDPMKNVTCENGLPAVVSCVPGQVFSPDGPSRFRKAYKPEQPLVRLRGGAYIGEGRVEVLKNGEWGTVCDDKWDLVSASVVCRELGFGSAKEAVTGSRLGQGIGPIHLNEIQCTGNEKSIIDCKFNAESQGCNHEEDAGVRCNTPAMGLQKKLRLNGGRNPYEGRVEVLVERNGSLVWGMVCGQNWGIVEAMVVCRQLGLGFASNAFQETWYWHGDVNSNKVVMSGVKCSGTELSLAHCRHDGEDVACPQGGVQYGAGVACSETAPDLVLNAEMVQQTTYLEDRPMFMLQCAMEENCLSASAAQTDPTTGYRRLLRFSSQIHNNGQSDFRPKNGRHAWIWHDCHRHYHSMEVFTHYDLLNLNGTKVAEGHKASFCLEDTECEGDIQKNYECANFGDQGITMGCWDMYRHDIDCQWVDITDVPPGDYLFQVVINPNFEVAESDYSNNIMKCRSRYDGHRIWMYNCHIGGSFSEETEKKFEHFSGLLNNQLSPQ
The assay is described as follows: Human LOXL2 Amine Oxidase Activity Assay (Amplex Red fluorescence). The format is biochemical. The following applies: concentrated conditioned media from CHO cells stably expressing human LOXL2; 2h at 37 °C with test compound; DAP substrate. As for the experimental part: Example B-1: Human LOXL2 Amine Oxidase Activity Assay
LOXL2 amine oxidase activity is evaluated by measuring Amplex Red fluorescence using 10-20X concentrated conditioned media from CHO cells stably expressing human LOXL2. To assay for amine oxidase activity, 10 µL of the concentrated conditioned media is incubated with 2 µL of test compound in DMSO and 73 µL Assay Buffer (50 mM Borate Buffer, pH8) for 2h at 37 °C. After the 2h incubation, 5 ul of 10 mM 1,5-Diaminopentane (DAP) diluted in Assay Buffer and 10 µl of Amplex Red Mix (8.5 µl Assay Buffer + 0.5 µl of 10 mM Amplex Red + 1 µl of 500 U/ml Horseradish Peroxidase) are added and the plate mixed and immediately placed on the FlexStaion for fluorescence measurements. Fluorescence is read in kinetic mode every 2 min for 1 hour at excitation = 544 and emission = 590. The amine oxidase activity is calculated from the slope of the linear portion of the curve.
Consider `NCc1cc(=O)c2cc(-c3cn(-c4ccccc4)nn3)ccc2[nH]1` [Compound 1-6, 2-(Aminomethyl)-6-(1-phenyl-1H-1,2,3-triazol-4-yl)quinolin-4(1H)-one], for which the half-inhibitory concentration (IC50) (as a rule, the midpoint of a concentration-inhibition curve) is less than 300 nM. Still for that read-out and setting: under `NCc1cc(=O)c2cc(-c3cncc(OCc4ccccc4)c3)ccc2[nH]1` [Compound 1-66, 2-(Aminomethyl)-6-(5-(benzyloxy)pyridin-3-yl)quinolin-4(1H)-one] stands less than 300 nM. On the same count and under the same terms, to `Cc1ccc(=O)n(-c2ccc3[nH]c(CN)cc(=O)c3c2)c1` [Compound 1-46, 2-(Aminomethyl)-6-(5-methyl-2-oxopyridin-1(2H)-yl)quinolin-4(1H)-one] belongs less than 300 nM; to `NCc1cc(=O)c2cc(C#Cc3ccccc3)ccc2[nH]1` [Compound 1-7, 2-(Aminomethyl)-6-(phenylethynyl)quinolin-4(1H)-one], less than 300 nM; to `NCc1cc(=O)c2cc(-c3cncnc3)ccc2[nH]1` [Compound 1-40, 2-(Aminomethyl)-6-(pyrimidin-5-yl)quinolin-4(1H)-one], less than 300 nM.

In the case of `NCc1cc(=O)c2cc(-c3cnc(C(F)(F)F)nc3)ccc2[nH]1` [Compound 1-77, 2-(Aminomethyl)-6-(2-(trifluoromethyl)pyrimidin-5-yl)quinolin-4(1H)-one], the IC50 is less than 300 nM. Still for that read-out and setting: under `NCc1cc(=O)c2cc(-c3ccc(F)cc3Cl)ccc2[nH]1` [Compound 1-70, 2-(Aminomethyl)-6-(2-chloro-4-fluorophenyl)quinolin-4(1H)-one] stands less than 300 nM.

`Cn1cc(-c2ccc3[nH]c(CN)cc(=O)c3c2)cn1` [Compound 1-47, 2-(Aminomethyl)-6-(1-methyl-1H-pyrazol-4-yl)quinolin-4(1H)-one] gave a half-inhibitory concentration (IC50) of less than 300 nM. With `NCc1cc(=O)c2cc(-c3cccc4cccnc34)ccc2[nH]1` [Compound 1-65, 2-(Aminomethyl)-[6,8'-biquinolin]-4(1H)-one], the IC50 was less than 300 nM. On the same count and under the same terms, under `Cn1c(CN)cc(=O)c2ccccc21` [Compound 1-2, 2-(Aminomethyl)-1-methylquinolin-4(1H)-one] stands more than 1000 nM; under `C#Cc1ccc2[nH]c(CN)cc(=O)c2c1` [Compound 1-4, 2-(Aminomethyl)-6-ethynylquinolin-4(1H)-one], less than 300 nM. The same measure, in the same setting: to `NCc1cc(=O)c2ccccc2[nH]1` [Compound 1-1, 2-(Aminomethyl)quinolin-4(1H)-one] belongs less than 300 nM.

As for `NCc1cc(=O)c2cc(-n3cccn3)ccc2[nH]1` [Compound 1-8, 2-(Aminomethyl)-6-(1H-pyrazol-1-yl)quinolin-4(1H)-one], the IC50 was less than 300 nM.

In turn, `COCCOc1ccc2[nH]c(CN)cc(=O)c2c1` [Compound 1-78, 2-(Aminomethyl)-6-(2-methoxyethoxy)quinolin-4(1H)-one] displayed a half-maximal inhibitory concentration (IC50) of less than 300 nM.

Compound `COc1ccc(-c2ccc3[nH]c(CN)cc(=O)c3c2)cc1F` [Compound 1-72, 2-(Aminomethyl)-6-(3-fluoro-4-methoxyphenyl)quinolin-4(1H)-one] yielded a half-maximal inhibitory concentration (IC50) of less than 300 nM. `COc1ccc2[nH]c(CN)cc(=O)c2c1` [Compound 1-9, 2-(Aminomethyl)-6-methoxyquinolin-4(1H)-one] returned a concentration for half-maximal inhibition (IC50) of less than 300 nM.

Take `NCc1cc(=O)c2cc(-c3ccc(C(F)(F)F)nc3)ccc2[nH]1` [Compound 1-74, 2-(Aminomethyl)-6-(6-(trifluoromethyl)pyridin-3-yl)quinolin-4(1H)-one]: the IC50 is less than 300 nM. Turning to `NCc1cc(=O)c2cc(Oc3ccccc3)ccc2[nH]1` [Compound 1-21, 2-(Aminomethyl)-6-phenoxyquinolin-4(1H)-one], the IC50 is less than 300 nM. `NCc1cc(=O)c2cc(-c3ccc(F)cc3)ccc2[nH]1` [Compound 1-11, 2-(Aminomethyl)-6-(4-fluorophenyl)quinolin-4(1H)-one] gave a half-inhibitory concentration (IC50) of less than 300 nM.

Compound `NCc1cc(=O)c2cc(-c3ccccc3)ccc2[nH]1` [Compound 1-5, 2-(Aminomethyl)-6-phenylquinolin-4(1H)-one] returned a half-maximal inhibitory concentration (IC50) of less than 300 nM. The same measure, in the same setting: to `NCc1cc(=O)c2cc(Br)ccc2[nH]1` [Compound 1-3, 2-(Aminomethyl)-6-bromoquinolin-4(1H)-one] belongs less than 300 nM.

The subject of the next assay is C57B1/6 male mice. The assay is described as follows: Mouse Oropharyngeal Bleomycin Model of Lung Fibrosis. Type of assay: in vivo. The following applies: dosed prophylactically at 60 mg/kg p.o. As for the experimental part:
Example B-3: Mouse Oropharyngeal Bleomycin Model of Lung Fibrosis
Lung fibrosis is induced in C57B1/6 male mice by administering bleomycin (0.1-4 U/kg) via oropharyngeal instillation. Mice are either pretreated with vehicle or test compound (1 day to 1 hour) orally, intraperitoneally, intravenously or subcutaneously before bleomycin installation (prophylactic dosing) or 7-14 days post bleomycin instillation (therapeutic dosing). The route and frequency of dosing are based on previously determined pharmacokinetic properties for the LOXL2 inhibitor in mouse. After bleomycin instillation animals are monitored daily for weight loss and clinical signs for 14-28 days prior to sacrifice. […] For histological examination, lung slices are stained with Masson's trichrome or Picro-Sirius red to measure cross-linked collagen as an indicator of fibrosis and an Ashcroft score of lung fibrotic and inflammatory damage determined. In addition, immunohistochemistry of fibrotic proteins such as a-smooth muscle actin can be recorded. […] After the acid hydrolysis, 25-100 µl of the supernatant is dried down, resuspended in 25 µl water and the hydroxyproline content determined by the addition of 0.5 ml Chloramine T solution (140 mg Chloramine T in 6.5 ml ddH20 + 1 ml n-propanol + 2.5 ml 1M sodium acetate) and incubation at room temperature for 20 min. […]
Regarding `NCc1cc(=O)c2cc(Br)ccc2[nH]1` [Compound 1-3, 2-(Aminomethyl)-6-bromoquinolin-4(1H)-one], the “efficacy in bleomycin model of lung fibrosis” value is “efficacious”.
